Data from a melting point compilation (Tetko et al.; mined from patent text by program, amines drawn as free bases though some values may be those of a salt).

| Compound | melting point [°C] |
| --- | --- |
| COc1ccc(-n2nc(C(C)(C)C)cc2NC(=O)c2cccc3cc(Oc4cc(Cl)ncn4)ccc23)cc1 | 163 to 164 |
| COC(=O)c1ccc2c(c1)CN(S(=O)(=O)c1ccc(C)cc1)C2 | 164 to 166 |
| CC(NC(=O)Cc1cc(F)cc(F)c1)C(=O)NC1C(=O)NCc2ccc(F)cc21 (configuration not stated) | 195 to 200 |
| O=C(O)Cc1c(Cl)nc(-c2cccc(O)c2)n1Cc1ccccc1 | 220 to 222 |
| CCCCn1c(S)nnc1C(=O)O | 108 to 110 |
| C=CCc1c(OC)c(C)c2c(c1OC(C)=O)C(=O)OC2 | 101 to 102 |
| c1cncc(-c2nc3ncccc3[nH]2)c1 | 133 to 135 |
| CC(C)c1ccc(C(=O)Cc2c(Cl)cccc2Cl)c(C(C)C)c1OS(N)(=O)=O | 203 to 205 |
| COC(=O)C(Oc1ccc(Cl)cc1)c1ccc(OCOc2ccc(Cl)cc2)cc1 (configuration not stated) | 64 to 65 |
| CC(=O)c1c(-c2ccncc2)[nH]c(-c2ccncc2)c1C(F)(F)F | 250 to 255 |
| O=C1Nc2cc(-n3nnn(CCCF)c3=O)c(F)cc2CC1Cl (configuration not stated) | 114 to 118 |
| Cc1nccn1-c1nc(-c2ccc(Cl)cc2)c(CCC#N)o1 | 163 to 164 |
| CN(C)c1ccc(-c2c(O)c3ccc(Cl)cc3[nH]c2=O)cc1 | > 300 |
| COC1Nc2c(ccc(C)c2OC(C)=O)C(=O)N2CCCC12 (configuration not stated) | 147 to 150 |
| O=C[C@H]1CC[C@H](c2ccc(F)cc2)CC1 | < 30 |
| CCCn1nc(SCCCCCC(=O)O)c(C(=O)O)c1Cc1cc2c(cc1Cl)OCO2 | 88 |
| CCC/C(=C\C=O)c1ccc2c(c1)C(CC)(CC)OC(=O)N2 | 173 to 179 |
| CCn1c(=O)c2c(nc(/C=C/c3ccc(OCCCCN=[N+]=[N-])cc3)n2C)n(CC)c1=O | 158 to 159 |
| C[C@@H]1C(=O)C[C@H]2C[C@@H]1OO[C@@]2(C)/C=C\c1ccc(Cl)cc1Cl | 137 |
| Cc1cc(C(F)(F)F)nc(OCC2CO2)c1C(=O)C1=C(O)C2CCC(C2)C1=O (configuration not stated) | 54 to 56 |
| COC(=O)c1c(C(N)=O)[nH]c(-c2ccccc2)c1N | 177 to 179 |
| O=C(SCC(Cc1ccc(Cl)cc1)C(=O)O)c1ccccc1 (configuration not stated) | 111 to 114 |
| COc1ccc(-c2ccc(C(CCC(=O)O)=NO)cc2)cc1 | 157 to 160 |
| CCCc1nc(SC)c(C(O)CO)n1Cc1ccc(-c2ccccc2S(=O)(=O)NC(=O)NCc2ccccc2)cc1 (configuration not stated) | 140 |
| COc1cccc(OC)c1NC(=O)c1ccc2nc(N[C@@H]3CCc4ccccc43)ccc2c1 | 199 |
| O=C1CCOc2ccc(OCc3ccc4ccccc4n3)cc21 | 112 to 114 |

| Compound | melting point [°C] |
| --- | --- |
| COc1cccc(OCCF)c1-c1ccc(C[C@H](NC(=O)c2c(Cl)cccc2Cl)C(=O)O)cc1 | 206 to 207 |
| CC(Oc1ccc(Oc2cnc3cc(Cl)ccc3n2)cc1)C(=O)Nc1ccc(OC(F)(F)C(F)F)cc1 (configuration not stated) | 146 to 148 |
| ON=Cc1cc(F)ccc1Cl | 133 to 134 |
| CC1Cc2cc3c(cc2C(c2ccc([N+](=O)[O-])cc2)=NN1C(=O)CCl)OCO3 (configuration not stated) | 158 to 160 |
| CCc1ccc(S(=O)O)cc1Cl | 58 to 60 |
| COC(=O)OC(C(=O)O)c1ccccc1 (configuration not stated) | 103 to 105 |
| NCCCCNC(=O)C(=O)NCCCCN | 106 to 108 |
| CC(C)(C)C(NC(=O)c1ccc(Cl)cc1)NC(=NC#N)Nc1cccc(Cl)c1 (configuration not stated) | 158 to 160 |
| C=Cn1cc(C(=O)O)c(=O)c2cc(F)c(O)nc21 | 256 to 259 |
| COC(=O)[C@H](Cc1c[nH]c2ccccc12)N(CCN(CC(=O)OC(C)(C)C)CC(=O)OC(C)(C)C)CCN(CC(=O)OC(C)(C)C)CC(=O)OC(C)(C)C | 71 |
| CCOC(=O)c1ccc(N)c(OCC#N)c1 | 140 to 142 |
| O=C(Nc1cccc(Br)n1)Nc1cccc2c1C1CCCCN1C2=O (configuration not stated) | 218 to 220 |
| N#Cc1ccc(N2C(=N)C3(CCSCC3)NC2=O)cc1C(F)(F)F | 226 to 227 |
| Cc1c2c(c(C)n1CCCN(C)C)C(C)(C#N)CC2(C)C (configuration not stated) | 90.5 to 91 |
| Nc1ccc2c(c1)OCC(CN1CC=C(c3c[nH]c4ccc(F)cc34)CC1)O2 (configuration not stated) | 172 to 174 |
| CCOC(=O)C1OC1c1ccc(OC)cc1 (configuration not stated) | 40 to 43 |
| CC1(C)CC(C)(C)CC2(CCC(=O)N2)C1 | 158 to 160 |
| CCCn1c(=O)n2c(-c3cccs3)nnc2c2c1ncn2C | 206 to 207 |
| CCCCCCCCCCc1cc2c(s1)NC(=O)CN=C2c1ccccc1C | 100 to 102 |
| O=c1occc2ccc(Cl)cc12 | 110 to 111 |
| COc1cc2cc3c(Nc4ccc(Sc5nccn5C)c(Cl)c4)c(C#N)cnc3cc2cc1OCCCCl | > 300 |
| CCOC(=O)c1ccc(-c2ccnc(Nc3cc(OC)c(OC)c(OC)c3)n2)cc1 | 181 to 182 |
| CC(=O)NC[C@H]1CN(c2ccc(N3CCC(C#N)(Nc4ccccc4)CC3)c(F)c2)C(=O)O1 | 81 to 85 |
| FC(F)(F)c1cc(Br)cc(OCc2ccc3ccccc3c2)c1 | 68 to 70 |
| CC(C)C(=O)N1CCC(C2(c3cccc(-c4ccccc4)c3)N=C(N)N(C)C2=O)CC1 (configuration not stated) | 131 to 134 |
| Cc1ccc(C)n1C(=O)c1cc2cc(Br)ccc2o1 | 115 to 116 |

| Compound | melting point [°C] |
| --- | --- |
| NCCN1CCC(Nc2nc3cncnc3n2Cc2ccc(F)cc2)CC1 | 146 |
| O=C(O)CNC(=O)c1nc2ccccc2cc1O | 191 |
| CC1(C)OC[C@@H](COn2cnc3c(Cl)nc(N)nc32)O1 | 118 to 120 |
| COc1ccc(S(=O)(=O)C(CC=C(C)C)(CC=C(C)C)C(=O)NO)cc1 | 93 to 96 |
| Cn1nnnc1SCCCCN1C(=O)c2ccccc2C1=O | 92 to 93 |
| C[C@@H]1S[C@@H](C(=O)Nc2ccc(CN3CCSCC3)cc2)Cc2cc3c(cc2C1=O)OCO3 | 204 to 206 |
| CCOC(=O)c1cn(Cc2cnsn2)c2c(F)c(F)c(F)cc2c1=O | 200 to 203 |
| O=C(O)CCC(=NO)c1ccc(-n2cccn2)cc1 | 128 to 130 |
| COc1ccc(NC(=O)CN2CC(C)N(C(c3ccc(F)cc3)c3ccc(F)cc3)CC2C)cc1 (configuration not stated) | 131 |
| COC(CC(=O)c1cccc(Br)c1)C(=O)O (configuration not stated) | 82.5 to 83.5 |
| O=C1c2ccccc2C(=O)N1CSc1ccncc1 | 133 to 134 |
| COc1nc2cc([N+](=O)[O-])c(C)c(C(=O)NCC(=O)OC(C)(C)C)c2nc1OC | 125 to 126 |
| Cc1cc(C)c(C(CO)c2ccc(Br)cc2)c(O)c1C (configuration not stated) | 114 to 115 |
| COc1cc2c(-c3cc4cccnc4[nH]3)cn(C)c2cc1OC(C)C | 216 |
| COc1ccc(C(=O)c2ccccc2NC(=O)CNC(=O)OCc2ccccc2)cc1 | 97 to 98 |
| CCN(CC)C1=CC(=O)C(=O)C=C1N(CC)CC | 100 to 103 |
| CCOC(=O)c1cccnc1N | 90.5 to 92.5 |
| CC1(c2ccc(-c3ccccc3)cc2)CC(=O)NN1 (configuration not stated) | 191 to 192 |
| CCCC=Cc1c(C(C)C)nc(C(C)C)c(CO)c1-c1ccccc1C | 76 to 79 |
| O=C(O)c1cc([N+](=O)[O-])ccc1Nc1ccc(CCCc2ccc(Cl)c(Cl)c2)cc1 | 153 to 155 |
| Nc1ccc2ccc(Cl)cc2n1 | 175 |
| O=C(O)COc1ccc(SCc2ccc(OCc3ccccc3)cc2)c2c1CCC2 | 145 to 147 |
| OCc1cc2sccc2s1 | 91 to 93 |
| CC(C)OC(=O)N1CCC(c2nc3cc(-c4ccc(C=O)cc4)ccc3o2)CC1 | 167 to 170 |
| COC(=O)CNc1cccc(Cl)c1 | 75 to 76 |
| Oc1ccc(OC[C@@H](O)CNCCc2ccc(-n3c(-c4ccc(C5CCCCC5)cc4)nc4cccnc43)cc2)cc1 | 100 to 102 |

| Compound | melting point [°C] |
| --- | --- |
| CN(CCC(O)c1ccc(Cl)cc1)Cc1ccccc1F (configuration not stated) | 52 to 54 |
| OC1CSC(Oc2ccc(-c3cncc(F)c3)nc2)C(O)C1O (configuration not stated) | 207 to 217 |
| CCOC(=O)c1cn(-c2cc(NC=O)c(F)cc2F)c2c(F)c(F)c(F)c(NCc3ccccc3)c2c1=O | 151 to 156 |
| CCN(c1nc(C)cc(C(=O)c2ccc3[nH]ccc3c2)n1)c1ccc(C(C)C)cc1Br | 77 to 79 |
| NC(=O)NC(=O)c1ccncc1 | 245 to 247 |
| COCCOc1ccc(C(=O)C(=O)O)cc1 | 129 to 130 |
| Cc1oc(-c2ccccc2)nc1COc1ccc2c(-c3ccccc3)c(COc3nn(-c4ccccc4)cc3C=O)oc2c1 | 176 to 177 |
| Cn1c(CNC2CCS(=O)(=O)CC2)cc2cc(NC(=O)c3ccc(OCC4CC4)cc3)ccc21 | 200 to 201 |
| ClC1(CBr)C=CC=CN1 (configuration not stated) | 40 to 43 |
| CC(C)c1c(/C=C/C=O)c(-c2ccccc2)c2c3ccccc3cnn12 | 162 to 164 |
| CC(=N)Nc1ccccc1N1CCOCC1 | 140 to 141 |
| Cc1ccccc1/C=C/c1c(C(C)C)nc(C(C)C)c(CO)c1-c1ccc(F)cc1 | 108 to 111 |
| CC(CC(=O)O)CC(=O)NCCc1ccccc1 (configuration not stated) | 78 to 80 |
| CC(C)(C)OC(=O)c1cc(N=Nc2ccccc2CCC(=O)O)ccc1O | 86 to 88 |
| CC[C@H](C)[C@H](OCc1ccccc1)[C@H]1[C@H]([N+](=O)[O-])[C@@H]([C@@H](OCc2ccccc2)C(C)C)N[C@@H]1C(=O)NCC(=O)O | 153 to 155 |
| CCc1nc2c(C)cc(C)nc2n1Cc1ccc(C(CC(=O)NS(C)(=O)=O)c2ccccc2)cc1 (configuration not stated) | 118 to 123 |
| CCOC(=O)C(NC(=O)OCc1ccccc1)C(=O)OCC | 36.5 to 37 |
| C[N+]1([O-])CC(c2ccccn2)C(=O)c2ccccc21 (configuration not stated) | 132 to 134 |
| COc1cc(C=Cc2ccc(=O)[nH]n2)cc(OC)c1OC | 194 to 196 |
| C=CCC1C(=O)c2cc(OC)ccc2C2CCC3(C)C(O)CCC3C12 (configuration not stated) | 122 to 123 |
| C#CCn1c(-c2ccccc2)nc(C=C)c(CC)c1=O | 113 to 115 |
| O=c1c2ccc(F)cc2nc(C(S)c2ncnc3[nH]cnc23)n1-c1ccccc1Cl (configuration not stated) | 151 to 154 |
| C[C@@H]1Cc2ccccc2O[C@H]1c1ccccc1 (relative stereo) | 77 to 78 |
| CCCCCc1cc2c(nc(O)n2CC2CCN(S(=O)(=O)CC)CC2)c(N)n1 | 222 to 225 |
